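1) Cells in 96-well plates. 2) Compound, 48 h, 5 concentrations. 3) Linear interpolation between surrounding doses. 4) Unreached endpoint = highest concentration. The concentration for 50% growth inhibition is given as GI50. The concentration for full growth arrest is given as TGI.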
Assays:
Test in all cases: NCI anticancer screen, dose series, 48 h
HOP-62 NSCLC = test system: HOP-62 NSCLC
OVCAR-4 ovarian = test system: OVCAR-4 ovarian
OVCAR-8 ovarian = test system: OVCAR-8 ovarian
HL-60(TB) leukemia = test system: HL-60(TB) leukemia
SR leukemia = test system: SR leukemia
DU-145 prostate = test system: DU-145 prostate
U251 CNS = test system: U251 CNS
SK-OV-3 ovarian = test system: SK-OV-3 ovarian
COLO 205 colon = test system: COLO 205 colon
HCT-116 colon = test system: HCT-116 colon
TK-10 renal = test system: TK-10 renal
SK-MEL-2 melanoma = test system: SK-MEL-2 melanoma
PC-3 prostate = test system: PC-3 prostate
HCC-2998 colon = test system: HCC-2998 colon
K-562 leukemia = test system: K-562 leukemia
SF-539 CNS = test system: SF-539 CNS
NCI-H460 lung = test system: NCI-H460 lung
SK-MEL-28 melanoma = test system: SK-MEL-28 melanoma
M14 melanoma = test system: M14 melanoma
RXF 393 renal = test system: RXF 393 renal
LOX IMVI melanoma = test system: LOX IMVI melanoma
NCI/ADR-RES ovarian = test system: NCI/ADR-RES ovarian
786-0 renal = test system: 786-0 renal
SF-295 CNS = test system: SF-295 CNS
SW-620 colon = test system: SW-620 colon
NCI-H226 lung = test system: NCI-H226 lung
CCRF-CEM leukemia = test system: CCRF-CEM leukemia
MDA-MB-231 breast = test system: MDA-MB-231 breast
T-47D breast = test system: T-47D breast
HT29 colon = test system: HT29 colon
NCI-H23 lung = test system: NCI-H23 lung
UACC-62 melanoma = test system: UACC-62 melanoma
HOP-92 NSCLC = test system: HOP-92 NSCLC
IGROV1 ovarian = test system: IGROV1 ovarian
EKVX NSCLC = test system: EKVX NSCLC
RPMI-8226 leukemia = test system: RPMI-8226 leukemia
BT-549 breast = test system: BT-549 breast
MDA-MB-435 = test system: MDA-MB-435
KM12 colon = test system: KM12 colon
A549 NSCLC = test system: A549 NSCLC
UACC-257 melanoma = test system: UACC-257 melanoma
MOLT-4 leukemia = test system: MOLT-4 leukemia
ACHN renal = test system: ACHN renal
SNB-19 CNS = test system: SNB-19 CNS
SF-268 CNS = test system: SF-268 CNS
MCF7 breast = test system: MCF7 breast
NCI-H522 lung = test system: NCI-H522 lung
A498 renal = test system: A498 renal
MALME-3M melanoma = test system: MALME-3M melanoma
UO-31 renal = test system: UO-31 renal
CAKI-1 renal = test system: CAKI-1 renal
SNB-75 CNS = test system: SNB-75 CNS
SN12C renal = test system: SN12C renal
HCT-15 colon = test system: HCT-15 colon
OVCAR-3 ovarian = test system: OVCAR-3 ovarian
HS 578T breast = test system: HS 578T breast

CCc1cccc2c3c(sc12)C(c1ccc(Cl)cc1)C(C#N)=C(/N=C/c1ccc(Cl)cc1)O3 (configuration not stated) showed a GI50 (HOP-62 NSCLC) of 2.08 µM, a TGI (HOP-62 NSCLC) of 22.3 µM and a GI50 (OVCAR-4 ovarian) of over 50 µM. The TGI (OVCAR-4 ovarian) was over 50 µM, the GI50 (OVCAR-8 ovarian) was 1.6 µM and the TGI (OVCAR-8 ovarian) was over 50 µM. The GI50 (HL-60(TB) leukemia) was 0.577 µM, the TGI (HL-60(TB) leukemia) was over 50 µM and the GI50 (SR leukemia) was 0.29 µM. For the same molecule, the TGI (SR leukemia) was 36.3 µM, the GI50 (DU-145 prostate) was 1.27 µM and the TGI (DU-145 prostate) was over 50 µM. For the same molecule, the GI50 (U251 CNS) was 1.66 µM, the TGI (U251 CNS) was 17 µM and the GI50 (SK-OV-3 ovarian) was 2.79 µM. The TGI (SK-OV-3 ovarian) was over 50 µM, the GI50 (COLO 205 colon) was 1.59 µM and the TGI (COLO 205 colon) was over 50 µM. For the same molecule, the GI50 (HCT-116 colon) was 0.347 µM, the TGI (HCT-116 colon) was over 50 µM and the GI50 (TK-10 renal) was 8.46 µM. It also gave a TGI (TK-10 renal) of over 50 µM, a GI50 (SK-MEL-2 melanoma) of 0.797 µM and a TGI (SK-MEL-2 melanoma) of 23.6 µM. For the same molecule, the GI50 (PC-3 prostate) was 0.556 µM, the TGI (PC-3 prostate) was over 50 µM and the GI50 (HCC-2998 colon) was 1.08 µM. It also gave a TGI (HCC-2998 colon) of over 50 µM, a GI50 (K-562 leukemia) of 0.234 µM and a TGI (K-562 leukemia) of over 50 µM. The GI50 (SF-539 CNS) was 0.755 µM, the TGI (SF-539 CNS) was 2.09 µM and the GI50 (NCI-H460 lung) was 1.02 µM. For the same molecule, the TGI (NCI-H460 lung) was over 50 µM, the GI50 (SK-MEL-28 melanoma) was 9.5 µM and the TGI (SK-MEL-28 melanoma) was over 50 µM. It also gave a GI50 (M14 melanoma) of 0.582 µM, a TGI (M14 melanoma) of over 50 µM and a GI50 (RXF 393 renal) of 0.578 µM. For the same molecule, the TGI (RXF 393 renal) was 2.66 µM, the GI50 (LOX IMVI melanoma) was 0.905 µM and the TGI (LOX IMVI melanoma) was over 50 µM. For the same molecule, the GI50 (NCI/ADR-RES ovarian) was 0.214 µM, the TGI (NCI/ADR-RES ovarian) was 8.38 µM and the GI50 (786-0 renal) was 1.63 µM. For the same molecule, the TGI (786-0 renal) was over 50 µM, the GI50 (SF-295 CNS) was 0.177 µM and the TGI (SF-295 CNS) was 0.806 µM. It also gave a GI50 (SW-620 colon) of 0.36 µM, a TGI (SW-620 colon) of over 50 µM and a GI50 (NCI-H226 lung) of 6.31 µM. For the same molecule, the TGI (NCI-H226 lung) was over 50 µM, the GI50 (CCRF-CEM leukemia) was 0.892 µM and the TGI (CCRF-CEM leukemia) was over 50 µM. For the same molecule, the GI50 (MDA-MB-231 breast) was 2.4 µM, the TGI (MDA-MB-231 breast) was over 50 µM and the GI50 (T-47D breast) was 1.13 µM. The TGI (T-47D breast) was over 50 µM, the GI50 (HT29 colon) was 1.2 µM and the TGI (HT29 colon) was over 50 µM. The GI50 (NCI-H23 lung) was 2.51 µM, the TGI (NCI-H23 lung) was over 50 µM and the GI50 (UACC-62 melanoma) was 0.306 µM. It also gave a TGI (UACC-62 melanoma) of 44.5 µM, a GI50 (HOP-92 NSCLC) of 7.66 µM and a TGI (HOP-92 NSCLC) of 45.5 µM. It also gave a GI50 (IGROV1 ovarian) of 0.377 µM, a TGI (IGROV1 ovarian) of over 50 µM and a GI50 (EKVX NSCLC) of 1.34 µM. The TGI (EKVX NSCLC) was over 50 µM, the GI50 (RPMI-8226 leukemia) was 1.06 µM and the TGI (RPMI-8226 leukemia) was over 50 µM. For the same molecule, the GI50 (BT-549 breast) was 2.36 µM, the TGI (BT-549 breast) was over 50 µM and the GI50 (MDA-MB-435) was 0.162 µM. For the same molecule, the TGI (MDA-MB-435) was 0.788 µM, the GI50 (KM12 colon) was 0.417 µM and the TGI (KM12 colon) was over 50 µM. It also gave a GI50 (A549 NSCLC) of 0.67 µM, a TGI (A549 NSCLC) of over 50 µM and a GI50 (UACC-257 melanoma) of 21.4 µM. It also gave a TGI (UACC-257 melanoma) of over 50 µM, a GI50 (MOLT-4 leukemia) of 1.65 µM and a TGI (MOLT-4 leukemia) of over 50 µM. The GI50 (ACHN renal) was 0.779 µM, the TGI (ACHN renal) was over 50 µM and the GI50 (SNB-19 CNS) was 1.2 µM. The TGI (SNB-19 CNS) was 15.8 µM, the GI50 (SF-268 CNS) was 10.9 µM and the TGI (SF-268 CNS) was over 50 µM. It also gave a GI50 (MCF7 breast) of 0.248 µM, a TGI (MCF7 breast) of over 50 µM and a GI50 (NCI-H522 lung) of 0.206 µM. For the same molecule, the TGI (NCI-H522 lung) was 2.96 µM, the GI50 (A498 renal) was 0.28 µM and the TGI (A498 renal) was 4.92 µM. The GI50 (MALME-3M melanoma) was 4.72 µM, the TGI (MALME-3M melanoma) was over 50 µM and the GI50 (UO-31 renal) was 1.69 µM. For the same molecule, the TGI (UO-31 renal) was over 50 µM, the GI50 (CAKI-1 renal) was 1.29 µM and the TGI (CAKI-1 renal) was over 50 µM. The GI50 (SNB-75 CNS) was 0.104 µM, the TGI (SNB-75 CNS) was 1.22 µM and the GI50 (SN12C renal) was 1.93 µM. The TGI (SN12C renal) was over 50 µM, the GI50 (HCT-15 colon) was 0.317 µM and the TGI (HCT-15 colon) was over 50 µM. It also gave a GI50 (OVCAR-3 ovarian) of 0.433 µM, a TGI (OVCAR-3 ovarian) of 25.2 µM and a GI50 (HS 578T breast) of 1.18 µM. For the same molecule, the TGI (HS 578T breast) was 35.1 µM.
